{
  "source": "patent US8067032B2",
  "about": "“Method for preparing submicron particles of antineoplastic agents” (Baxter International Inc., priority 2000, dated 2011)",
  "assay": "Solubility of itraconazole in NMP",
  "format": "physicochemical",
  "conditions": "organic solvent or mixture, room temperature (approximately 22° C.)",
  "protocol": "Sample preparation. […] A 0.20 g/mL drug concentrate solution was prepared by dissolving 2.0 g of itraconazole and 0.2 g Poloxamer 188 in 10 mL NMP with heat and stirring. This solution was then allowed to cool to room temperature to yield a supersaturated solution. A microprecipitation experiment was immediately performed in which 1.5 mL of the drug concentrate was added to 30 mL of an aqueous solution containing 0.1% deoxycholate, 2.2% glycerol. The aqueous solution was maintained at ˜2° C. and a stir rate of 350 rpm during the addition step. The resulting presuspension was homogenized at ˜13,000 psi for approx. 10 minutes at 50° C. The suspension was then centrifuged, the supernatant decanted, and the solid crystals dried in a vacuum oven at 30° C. for 135 hours.",
  "data": [
    {"smiles": "CCC(C)n1ncn(-c2ccc(N3CCN(c4ccc(OCC5COC(Cn6cncn6)(c6ccc(Cl)cc6Cl)O5)cc4)CC3)cc2)c1=O", "note": "(stereo not shown) [itraconazole]", "values": [
      {"measurement": "solubility", "value": 160, "unit": "mg/mL"}
    ]}
  ]
}
